Test results as given in patent publication US20170252289A1, “Hydroponic Tiliacora Triandra and Use Thereof” (Avon Products, Inc., priority 2016, published 2017).

Assays:
[1] = system: Human 3D skin EFT400FT tissues; test: Stimulation of HA production in human 3D skin tissues (hyaluronic acid test kit on conditioned medium); format: cell-based; details: 30 μl on apical surface, 8 hours per day for 3 days
Description: Method: Human 3D skin EFT400FT (MatTek, MA, USA) tissues were cultured following manufacture's instruction. Tiliacora triandra extract (extracted from hydroponically grown plant using 20/80 (v/v) water/ethanol) was added directly to the culture medium from a stock solution of 10% (w/w) extract in water in an amount adequate to achieve a final concentration of 0.2% (w/w) in the culture medium. The culture medium (EFT-400-MM) with and without Tiliacora triandra extract was collected 24 hours after dosing and fresh medium with and without Tiliacora triandra extract was added. Conditioned media from 3-day collection were pooled and assayed for the levels of HA.
HA production was measured using hyaluronic acid test kit (Corgenix, Inc. CO, USA). […] Add 100 μl Stopping Solution to stop the enzyme reaction and read the O.D. of each well at 450 nm. The amount of HA in the conditioned medium was calculated from this standard curve. […]
The same procedure of Example 4 was repeated using the skincare active glycolic acid, alone or in combination with hydroponic Tiliacora triandra extract, to investigate possible synergies between hydroponic Tiliacora triandra extract and glycolic acid. […] Glycolic acid was formulated into the base formula provided below in Table 3 in an amount calculated to provide a 0.5% (w/w) concentration of glycolic acid in the emulsion. […]

HAS2 gene = test: Hyaluronic acid synthase (HAS) gene expression by qPCR in treated 3D skin tissue, HAS2; format: cell-based, Human; details: treated 3D skin EFT400FT tissue, 18S house keeping gene
Description: (§1) Total RNA was isolated from each treated 3D skin EFT400FT tissue using Trizol reagent (Thermo Fisher Scientific, MA). 1 μg of total RNA was used to generate cDNA using Supercript III first strand synthesis kit (Thermo Fisher Scientific, MA). Reverse transcriptase, Buffer, dNTP, Random primer, and RNase Inhibitor were diluted with the RNA according to the protocol from the manufacturer. 25 ng cDNA was used in 20 μl q-PCR reactions. Briefly, 10 μl of TaqMan Advanced Master Mix (Thermo Fisher Scientific, MA), 4 μl of H2O, 5 μl of cDNA, and 1 μl of either HAS primer (HAS2 Hs00193435_m1 and HAS3 Hs00193436_m1, Applied Biosystems) or 18S (Hs99999901_s1, Applied Biosystems) as a house keeping gene were mixed in a 96 well plate. The condition of qPCR was an incubation step of 95° C. for 20 seconds followed by 40 cycles of 95° C. for 3 seconds and 60° C. for 30 seconds. CT and RQ values were obtained from the software of applied Biosystems 7500 Fast Real Time PCR system. The results are shown below in Table 6, as percentage change of expression of hyaluronan synthase genes over control.

HAS3 gene = test: Hyaluronic acid synthase (HAS) gene expression by qPCR in treated 3D skin tissue, HAS3; format: cell-based, Human; details: treated 3D skin EFT400FT tissue, 18S house keeping gene
Description: as §1

| SMILES | % change in HA level over the control ([1]; Example 5, 0.5% (w/w) glycolic acid emulsion) | HAS2 gene % change of expression over control (HAS2 gene) | HAS3 gene % change of expression over control (HAS3 gene) | % change in HA level over the control ([1]; Example 6, 5% (w/w) niacinamide emulsion) |
| --- | --- | --- | --- | --- |
| O=C(O)CO [Glycolic acid, glycolic acid] | 25.21% | No effect | 101% | – |
| NC(=O)c1cccnc1 [Niacinamide, niacinamide] | – | No effect | 106% | 119.54% |
